In assay [1] the test system is isolated guinea pig trachea. Nature of the assay: Isolated guinea pig trachea relaxation test. To be noted: 50% relaxation of 0.1 μM carbachol-induced contraction. As for the experimental part: The tracheas were isolated from guinea pigs (Hartley, male, age 7 to 9 weeks, supplier: Nippon SLC) followed by cutting as rings containing cartilage. Trachea specimens were prepared by cutting the side opposite from the smooth muscle from the rings. The trachea specimens were suspended in Krebs solution containing 3 μM indomethacin while applying a load of 0.5 g, and changes in tension were measured through an FD pickup (TB-611T, Nippon Kohden). The trachea specimens were then warmed to 37° C. and perfused with a mixed gas consisting of 95% oxygen and 5% carbon dioxide. Next, after causing the trachea specimen to contract by adding 0.1 μM carbachol, a test compound dissolved in dimethylsulfoxide was cumulatively added starting at a low concentration to cause the trachea specimen to relax.

The target of assay [2] is T1, EP2 (Homo sapiens, UniProt P43116). The experiment in a line: Measurement of EP2 receptor binding action. Also on record: expressed in transfected cells; host or cells: HEK293 cells (membrane fraction). The method, then: Measurement of EP2 receptor binding action was carried out in compliance with the method of Abramovitz et al. (Biochimica et Biophysica Acta, 1483, 285 (2000)). […] The membrane fraction was recovered on glass fiber filter paper (GF/B, Whatmann) using a cell harvester (M30R, Brandel), and after washing with buffer solution (10 mM MES-KOH (pH 6.0), 10 mM MgCl2), radioactivity was measured with a liquid scintillation analyzer (2000CA, Packard). […] The dissociation constant (Kd) was calculated by Scatchard analysis. Furthermore, a Compound A shown in the table is a sodium salt of {3-[(4-tert-butylbenzyl)(pyridin-3-ylsulfonyl)aminomethyl]-phenoxy}acetic acid (CP-533,536), which is the compound of Example 14e of WO 99/19300A, and is a control compound having EP2 receptor binding action.

For assay [3], the target named is T1, EP2. The experiment in a line: Measurement of EP2 agonist activity (cAMP in HEK293 cells). It is filed as cell-based. On the set-up: host or cells: HEK293 cells. To be noted: amount of cAMP in HEK293 cells (ES-562-C, Euroscreen), 30 minutes. As for the experimental part:
Measurement of EP2 agonist activity was carried out in compliance with the method of Wilson et al. (European Journal of Pharmacology, 501, 49 (2004)). HEK293 cells (ES-562-C, Euroscreen) were cultured in MEM medium containing 10% FBS and seeded at 2×10^4 cells per well of a 96-well plate. On the following day, the medium was replaced with serum-free MEM medium containing 3-isobutyl-1-methylxanthine (final concentration: 500 μM) and after culturing for 30 minutes, a test compound dissolved in dimethylsulfoxide was added followed by allowing to stand undisturbed in a carbon dioxide incubator. After 30 minutes, the amount of cAMP in the cells was measured with a cAMP Biotrak EIA System kit (GE Healthcare Sciences).

The mark [4] stands for this setting: read-out: Ki Value of EP2 Receptor Binding Action.

Structures can show the parent of a compound that is named as a salt. Where two headings read alike, the source gives them in different places.

T1 sequence (P43116 whole entry): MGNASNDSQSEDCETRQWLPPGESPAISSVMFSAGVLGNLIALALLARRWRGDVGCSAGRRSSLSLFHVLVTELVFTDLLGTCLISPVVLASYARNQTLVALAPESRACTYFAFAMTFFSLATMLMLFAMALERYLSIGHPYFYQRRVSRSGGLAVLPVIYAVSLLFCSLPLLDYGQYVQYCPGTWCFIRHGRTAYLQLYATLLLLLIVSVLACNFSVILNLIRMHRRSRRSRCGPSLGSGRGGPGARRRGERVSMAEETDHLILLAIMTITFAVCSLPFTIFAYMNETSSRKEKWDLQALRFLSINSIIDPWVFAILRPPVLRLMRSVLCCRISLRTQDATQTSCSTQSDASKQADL

In the case of `CC(C)(C)c1ccc(CN(Cc2cccc(OCC(=O)O)c2)S(=O)(=O)c2cccnc2)cc1` [Compound A, {3-[(4-tert-butylbenzyl)(pyridin-3-ylsulfonyl)aminomethyl]-phenoxy}acetic acid, reference compound], half-maximal inhibition in assay [1] (Cavia porcellus) (IC50) required 86 nM.

Take `O=C(O)CNc1cccc(CN(Cc2ccc(-c3nccs3)cc2)S(=O)(=O)c2cccnc2)n1` [Example 2, (6-{(Pyridin-3-ylsulfonyl)[4-(thiazol-2-yl)benzyl]aminomethyl}pyridin-2-ylamino)-acetic acid]: in assay [1] (Cavia porcellus), the 50% inhibitory concentration (IC50) (commonly the midpoint of a concentration-inhibition curve) worked out at 5.7 nM.

Consider `O=C(O)CNc1cccc(CN(Cc2ccc(-c3nccs3)cc2)S(=O)(=O)c2ccccn2)n1` [Example 3, (6-{(Pyridin-2-ylsulfonyl)[4-(thiazol-2-yl)benzyl]aminomethyl}pyridin-2-ylamino)-acetic acid], for which the Ki (as a rule, a dissociation constant, usually derived from enzyme kinetics or from competition with a known ligand) at EP2 [2] (setting [4]) came out at 1.9 nM. In addition, the midpoint of the response on EP2 [3], the EC50, lay at 0.45 nM.

As for `O=C(O)CNc1cccc(CN(Cc2ccc(-c3nccs3)cc2)S(=O)(=O)c2ccc(F)cc2)n1` [Example 4, (6-{(4-Fluorobenzenesulfonyl)[4-(thiazol-2-yl)benzyl]aminomethyl}pyridin-2-ylamino)acetic acid], the Ki at EP2 [2] ([3H]prostaglandin E2 10 nM, membrane fraction of HEK293 cells expressing human EP2 receptor, read-out: Ki Value of EP2 Receptor Binding Action) came out at 2.8 nM. Further, the midpoint of inhibition in assay [1], the IC50, lay at 4.5 nM. Further, the response at EP2 [3] was half-maximal at 0.29 nM (EC50).

As to `O=C(O)CNc1cccc(CN(Cc2ccc(C3=NCCS3)cc2)S(=O)(=O)c2ccc(F)cc2)n1` [Example 5, (6-{[4-(4,5-Dihydrothiazol-2-yl)benzyl](4-fluorobenzenesulfonyl)aminomethyl}-pyridin-2-ylamino)acetic acid], the Ki on EP2 [2] (setting [4]) turned out to be 7 nM. The EC50 (as a rule, the midpoint of the concentration-response curve) at EP2 [3] was found to be 1.8 nM.

On EP2 [2], `O=C(O)CNc1cccc(CN(Cc2ccc(-c3ccccc3)cc2)S(=O)(=O)c2cccnc2)n1` [Example 6, {6-[(Biphenyl-4-ylmethyl)(pyridin-3-ylsulfonyl)aminomethyl]pyridin-2-ylamino}acetic acid hydrochloride] came in with a Ki of 3.8 nM. On EP2 [3], this molecule showed an EC50 of 2 nM.

As for `O=C(O)CNc1cccc(CN(Cc2ccc(-n3cccn3)cc2)S(=O)(=O)c2cccnc2)n1` [Example 7, (6-{[4-(Pyrazol-1-yl)benzyl](pyridin-3-ylsulfonyl)aminomethyl}pyridin-2-ylamino)-acetic acid hydrochloride], a half-maximal effect at EP2 [3] (EC50) was put at 2.8 nM.

Turning to `O=C(O)CNc1cccc(CN(Cc2cc3ccccc3o2)S(=O)(=O)c2cccnc2)n1` [Example 8, {6-[(Benzofuran-2-ylmethyl)(pyridin-3-ylsulfonyl)aminomethyl]pyridin-2-ylamino}-acetic acid hydrochloride], the EC50 on EP2 [3] was 5.6 nM.

`O=C(O)CNc1cccc(CN(Cc2ccc(-c3ccc(F)cc3)cc2)S(=O)(=O)c2cccnc2)n1` [Example 9, {6-[(4′-Fluorobiphenyl-4-ylmethyl)(pyridin-3-ylsulfonyl)aminomethyl]pyridin-2-ylamino}acetic acid hydrochloride]: at EP2 [2] (setting [4]), the Ki was 4.4 nM.

Consider `O=C(O)CNc1cccc(CN(Cc2ccc(-c3nccs3)cc2)S(=O)(=O)c2cccnc2)n1` [Example 11, (6-{(Pyridin-3-ylsulfonyl) [4-(thiazol-2-yl)benzyl]aminomethyl}pyridin-2-ylamino)-acetic acid trifluoroacetate], for which the Ki on EP2 [2] (setting [4]) was determined as 3.8 nM. For the same molecule, the EC50 at EP2 [3] is 0.42 nM.

For `O=C(O)CNc1cccc(CN(Cc2cc3ccc(Cl)cc3s2)S(=O)(=O)c2cccnc2)n1` [Example 12, {6-[(6-Chlorobenzo[b]thiophen-2-ylmethyl)(pyridin-3-ylsulfonyl)aminomethyl]pyridin-2-ylamino}acetic acid hydrochloride], the inhibition constant Ki on EP2 [2] (setting [4]) was determined as 1.1 nM. At EP2 [3], this molecule displayed an EC50 of 0.49 nM.

Regarding `O=C(O)CNc1cccc(CN(Cc2cc3ccccc3s2)S(=O)(=O)c2cccnc2)n1` [Example 13, {6-[(Benzo[b]thiophen-2-ylmethyl)(pyridin-3-ylsulfonyl)aminomethyl]pyridin-2-ylamino}acetic acid hydrochloride], at EP2 [2] (setting [4]), the Ki came to 13 nM. Further, the EC50 on EP2 [3] turned out to be 3.4 nM.

With `COc1ccc2cc(CN(Cc3cccc(NCC(=O)O)n3)S(=O)(=O)c3cccnc3)sc2c1` [Example 15, {6-[(6-Methoxybenzo[b]thiophen-2-ylmethyl)(pyridin-3-ylsulfonyl)aminomethyl]-pyridin-2-ylamino}acetic acid hydrochloride], the Ki at EP2 [2] (setting [4]) stood at 9.4 nM. The same molecule yielded an IC50 in assay [1] (Cavia porcellus) of 2.6 nM. This molecule returned an EC50 on EP2 [3] of 0.96 nM.

As for `O=C(O)CNc1cccc(CN(Cc2ccc(-c3cscn3)cc2)S(=O)(=O)c2ccccn2)n1` [Example 16, (6-{(Pyridin-2-ylsulfonyl)[4-(thiazol-4-yl)benzyl]aminomethyl}pyridin-2-ylamino)-acetic acid], the Ki at EP2 [2] (setting [4]) was 3.1 nM. In assay [1] (Cavia porcellus), the half-maximal inhibitory concentration (IC50) came out at 2.6 nM. In addition, a half-maximal effect on EP2 [3] (EC50) was put at 0.62 nM.

`O=C(O)CNc1cccc(CN(Cc2ccc(-c3ccccc3)cc2)S(=O)(=O)c2ccccn2)n1` [Example 17, {6-[(Biphenyl-4-ylmethyl)(pyridin-2-ylsulfonyl)aminomethyl]pyridin-2-ylamino}acetic acid hydrochloride]: the Ki on EP2 [2] (setting [4]) was 1.5 nM. Besides, the IC50 in assay [1] (Cavia porcellus) worked out at 2.6 nM. The molecule further yielded an EC50 on EP2 [3] of 1.8 nM.

With `O=C(O)CNc1cccc(CN(Cc2ccc(-c3ncccn3)cc2)S(=O)(=O)c2ccccn2)n1` [Example 18, (6-{(Pyridin-2-ylsulfonyl)[4-(pyrimidin-2-yl)benzyl]aminomethyl}pyridin-2-ylamino)-acetic acid hydrochloride], on EP2 [2] (setting [4]), the Ki is 9.2 nM. On EP2 [3], this molecule gave an EC50 of 5 nM.

Molecule `O=C(O)CNc1cccc(CN(Cc2ccc(-c3ccccn3)cc2)S(=O)(=O)c2cccnc2)n1` [Example 19, (6-{[4-(Pyridin-2-yl)benzyl](pyridin-3-ylsulfonyl)aminomethyl}pyridin-2-ylamino)-acetic acid] displayed a half-maximal effective concentration (EC50) at EP2 [3] of 2 nM.

The molecule `O=C(O)CNc1cccc(CN(Cc2ccc(-n3cccn3)cc2)S(=O)(=O)c2ccccn2)n1` [Example 21, (6-{[4-(Pyrazol-1-yl)benzyl](pyridin-2-ylsulfonyl)aminomethyl}pyridin-2-ylamino)-acetic acid] showed an EC50 on EP2 [3] of 1.1 nM.

Take `O=C(O)CNc1cccc(CN(Cc2ccc(-c3nc(C(F)(F)F)cs3)cc2)S(=O)(=O)c2ccccn2)n1` [Example 25, (6-{(Pyridin-2-ylsulfonyl)[4-(4-trifluoromethylthiazol-2-yl)benzyl]aminomethyl}-pyridin-2-ylamino)acetic acid]: the EC50 at EP2 [3] turned out to be 7.9 nM. This EC50 lies about 7.2-fold higher than the previous one.

`O=C(O)CNc1cccc(CN(Cc2ccc(-n3cccn3)cc2)S(=O)(=O)c2ccc(F)cc2)n1` [Example 26, (6-{(4-Fluorobenzenesulfonyl)[4-(pyrazol-1-yl)benzyl]aminomethyl}pyridin-2-ylamino)acetic acid] registered an EC50 on EP2 [3] of 0.78 nM. Compared with the last molecule, the EC50 is about 10-fold lower.

The values above are taken from patent US8648097B2, “Pyridylaminoacetic acid compound” (Ube Industries, Ltd., priority 2008, dated 2014).
